Biological target: T1, human CB2 (Homo sapiens, UniProt P34972)
T1 construct: expressed in transfected cells; host or cells: HEK-293T (transient transfection, membrane preparation)
Assay: CB2 receptor binding assay, block of [3H]-CP 55,940 binding
Details: membranes of HEK-293T cells transfected with human CB2 cDNA; 1.5 nM [3H]-CP 55,940
Description: Membrane preparation—HEK-293T cells were cultured according to ATCC (Manassas, Va.) guidelines and transfected with human CB2 cDNA (SEQ ID NO:1) (Genbank X74328), operably linked to the SV40 promoter, using Polyfect (Qiagen, Valencia, Calif.) or Fugene (Roche, Nutley, N.J.) according to manufacturer's instructions. 48 h after transfection cells were harvested in ice cold membrane buffer (20 mM HEPES, 6 mM MgCl2, 1 mM EDTA, pH 7.2) using a cell scraper. Cells were transferred to a nitrogen cavitation chamber and a pressure of […] was applied for 30 min. The pressure was released and the cell debris was collected and centrifuged at 1000 g at 4° C. for 10 min. The supernatant was collected and the spin was repeated until the supernatant was free of precipitate. Membranes were then pelleted by centrifugation at 12.000 g at 4° C. for 20 min. Membranes were resuspended in an appropriate amount of membrane buffer. The membrane concentration was determined using a BioRad (Hercules, Calif.) protein assay dye reagent according to manufacturer's instructions. Membranes were diluted to 1 mg/ml and aliquots snap-frozen in liquid nitrogen and store at −80° C.
Binding assay—0.5-10 ng of membranes were incubated in binding buffer (50 mM Tris, 0.5 mM EDTA, 0.1% BSA, pH 7.4) in the presence of 1.5 nM radioligand ([^3H]-CP 55,940 Perkin Elmer) and varying concentrations of ligands (total volume 100 μL in a 96 well plate). Membranes were filtered onto a 96 well GF/B filterplate (Packard Bioscience, Shelton, Conn.) and washed with […] wash buffer (25 mM HEPES, 1 mM CaCl2, 5 mM MgCl2, 0.25M NaCl) using a Filtermate 196 Harvester (Packard Instruments, Downers Grove, Ill.). The filter plates were dried under a heat lamp before addition of 50 μL of scintillation fluid to each well (Microscint 20, Packard, Shelton, Conn.). Plates were counted on a Topcount NXT (Packard, Shelton, Conn.).
Data Analysis—Graphs were plotted and KD values were determined by nonlinear regression analysis using Prism software (GraphPad version 4.0, San Diego, Calif., USA).

T1 sequence (P34972 whole entry): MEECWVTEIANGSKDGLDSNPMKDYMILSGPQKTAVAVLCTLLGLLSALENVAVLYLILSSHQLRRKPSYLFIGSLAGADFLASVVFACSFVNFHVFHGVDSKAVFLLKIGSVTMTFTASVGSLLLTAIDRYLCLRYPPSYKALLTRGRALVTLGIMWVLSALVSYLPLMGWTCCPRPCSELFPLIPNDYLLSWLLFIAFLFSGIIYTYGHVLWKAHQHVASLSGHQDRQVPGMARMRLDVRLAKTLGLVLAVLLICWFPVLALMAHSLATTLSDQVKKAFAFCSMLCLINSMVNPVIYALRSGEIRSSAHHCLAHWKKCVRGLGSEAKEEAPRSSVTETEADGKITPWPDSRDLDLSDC

Structure (SMILES) | pKi | Ki [nM]
COc1cc(O)ccc1-c1nc2c(C)cccn2c1Nc1ccc2c(c1)OCCO2 [CR-105] | 6.4 | –
Cc1ccc2nc(-c3ncccc3F)c(Nc3ccc4c(c3)OCCO4)n2c1 [CR-87] | 6.6 | –
COc1cccc2nc(-c3c(C)cncc3C)c(Nc3ccc4c(c3)OCCO4)n12 [CR-139] | 8.2 | –
Cc1cc(O)cc(C)c1-c1nc2cccc(OCCF)n2c1Nc1ccc2c(c1)OCCO2 [CR-27] | 7.9 | –
Cc1cccc2nc(-c3ccc(OCCF)c(O)c3)c(Nc3ccc4c(c3)OCCO4)n12 [CR-69] | 6.8 | –
Cc1cccc2nc(-c3c(F)cncc3F)c(Nc3ccc4c(c3)OCCO4)n12 [CR-52] | 7.3 | –
COc1cc(-c2nc3ccc(Cl)cn3c2Nc2ccc3c(c2)OCCO3)ccc1O [CR-77] | 6.7 | –
COc1ccnc2nc(-c3c(C)cc(OCCF)cc3C)c(Nc3ccc4c(c3)OCCO4)n12 [CR-73] | 6.8 | –
Fc1cccnc1-c1nc2ccccn2c1Nc1ccc2c(c1)OCCO2 [CR-113] | 6.3 | –
Fc1cccc(Cl)c1-c1nc2ccccn2c1Nc1ccc2c(c1)OCCO2 [CR-38] | 7.7 | –
COc1cnc2nc(-c3c(F)cccc3Cl)c(Nc3ccc4c(c3)OCCO4)n2c1 [CR-31] | 7.8 | –
COc1cccc(OC)c1-c1nc2cnccn2c1Nc1ccc2c(c1)OCCO2 [CR-118] | 5.8 | –
CCc1cccc2nc(-c3c(F)cccc3Cl)c(Nc3ccc4c(c3)OCCO4)n12 [CR-45] | 7.4 | –
Cc1ccc2nc(-c3c(C)cccc3C)c(Nc3ccc4c(c3)OCCO4)n2c1 [CR-49] | 7.3 | –
Fc1cccc(Cl)c1-c1nc2cccc(C(F)(F)F)n2c1Nc1ccc2c(c1)OCCO2 [CR-122] | 6.0 | –
COc1cnc2nc(-c3c(F)cncc3F)c(Nc3ccc4c(c3)OCCO4)n2c1 [CR-137] | 6.5 | –
FCCOc1cccc2nc(-c3c(F)cncc3F)c(Nc3ccc4c(c3)OCCO4)n12 [CR-7] | 7.4 | –
FCCOc1cncc(F)c1-c1nc2cccc(OCCF)n2c1Nc1ccc2c(c1)OCCO2 [CR-8] | 6.6 | –

Structure (SMILES) | pKi | Ki [nM]
Cc1ccc2nc(-c3c(Cl)cccc3[N+](=O)[O-])c(Nc3ccc4c(c3)OCCO4)n2c1 [CR-47] | 7.4 | –
Cc1cccc2nc(-c3c(Cl)cccc3Cl)c(Nc3ccc4c(c3)OCCO4)n12 [CR-32] | 7.8 | –
CCC(C)Oc1cccc2nc(-c3c(F)cccc3Cl)c(Nc3ccc4c(c3)OCCO4)n12 (stereo not drawn) [CR-62] | 7.0 | –
COc1cc(-c2nc3c(C)cccn3c2Nc2ccc3c(c2)OCCO3)ccc1O [CR-72] | 6.8 | –
COc1cccc2nc(-c3c(Cl)cc(O)cc3Cl)c(Nc3ccc4c(c3)OCCO4)n12 [CR-23] | 8.2 | –
Fc1cncc(F)c1-c1nc2cccc(OCC[18F])n2c1Nc1ccc2c(c1)OCCO2 [CR-135] | – | 39.8
Cc1cccc2nc(-c3c(O)cccc3F)c(Nc3ccc4c(c3)OCCO4)n12 [CR-86] | 6.6 | –
Fc1cccc(-c2nc3ccccn3c2Nc2ccc3c(c2)OCCO3)n1 [CR-63] | 7.0 | –
Cc1cccc2nc(-c3c(F)cccc3Cl)c(Nc3ccc4c(c3)OCO4)n12 [CR-127] | 7.3 | –
COc1cccc2nc(-c3c(F)ccc(OCCF)c3Cl)c(Nc3ccc4c(c3)OCCO4)n12 [CR-9] | 9.3 | –
COc1cccc2nc(-c3c(F)cccc3Cl)c(Nc3ccc4c(c3)OCCO4)n12 [CR-14] | 8.7 | –
COc1cc(-c2nc3cnccn3c2Nc2ccc3c(c2)OCCO3)ccc1O [CR-75] | 6.8 | –
Cc1cccc(C)c1-c1nc2ccccn2c1Nc1ccc2c(c1)OCCO2 [CR-51] | 7.3 | –
Cc1cccc2nc(-c3c(F)cccc3Cl)c(Nc3ccc4c(c3)OCCO4)n12 [CR-25] | 8.0 | –
COc1ccc2nc(-c3c(F)cccc3Cl)c(Nc3ccc4c(c3)OCCO4)n2c1Cl [CR-44] | 7.4 | –
COc1cc(O)ccc1-c1nc2cccc(C)n2c1Nc1ccc2c(c1)OCCO2 [CR-65] | 6.9 | –
COc1cc(-c2nc3ncccn3c2Nc2ccc3c(c2)OCCO3)ccc1O [CR-70] | 6.8 | –
COc1cccc2nc(-c3c(F)cccc3F)c(Nc3ccc4c(c3)OCCO4)n12 [CR-19] | 8.4 | –
